# Data: patent US7160685B2, “Diagnostic reagents for human cytomegalovirus and methods of use” (priority 1996, dated 2007)
# Where no end group is shown, it is not given here. The star is where a group is joined. Palmitoyl = CCCCCCCCCCCCCCCC(=O)*
# How the values were obtained:
# [1] = tested on: peptide-loaded T2 cells, EBVLCL targets infected with pp65Vac, and HCMV-infected fibroblasts; assay: lipidated peptides with and without IFA in transgenic HLA A2.1 mouse, CRA; assay type: in vivo; details: peptide together with PADRE, with versus without emulsification in IFA
# Description: Either one or two palmitic acid moieties were attached to the amino terminus of the 495 peptide, and a series of immunization studies were conducted in the transgenic HLA A2.1 mouse.
# Separate mice were immunized with unmodified pp65495-503, and either the monolipidated or dilipidated forms of the peptide together with the PADRE epitope. Because it has been previously shown that lipidated peptides will stimulate immunity without co-administration of Freund's adjuvant (H. Schild et al., Eur. J. Immunol. 21:2649–2654 (1991)), immunization of mice with and without emulsifying the peptides in IFA was compared. In a procedure similar to the procedure described in Example 9 above, twelve days post inoculation the mice were splenectomized and the spleen cell population was restimulated twice in vitro. The splenic effectors were then tested in a chromium release assay with peptide-loaded T2 cells, EBVLCL targets infected with pp65Vac, and HCMV-infected fibroblasts (D. J. Diamond et al., Blood 90 (5):1751–1767 (1997)). […] (See FIGS. 1–3)
# peptide loaded T2 cells = assay: immunization of HLA A2.1 transgenic mice, splenic effectors tested on peptide loaded T2 cells; assay type: in vivo, mouse; details: 50 μg peptide with 20 μg PADRE in IFA s.c., two in vitro restimulation cycles
# Text: A transgenic mouse model lacking prior HCMV exposure, the HLA A2.1 mouse (E. J. Bernhard et al., J. Exp. Med. 168:1157–1162 (1988)), was employed to test whether the 495 peptide could stimulate CTLs lacking prior virus exposure and function as a vaccine. These experiments involved in vitro analysis using mouse and human cell targets, either infected with viruses or primed with the peptide of SEQ ID NO:1 or a non-specific control peptide.
# Three mice were immunized subcutaneously at the base of the tail with 50 μg of the 495 peptide (pp65495-503) or peptide p53149-157 from p53 (M. Theobald et al., Proc. Natl. Acad. Sci. U.S.A. 92:11993–11997 (1995)) together with 20 μg of the polyclonal helper T lymphocyte (HTL) peptide (PADRE; SEQ ID NO:29) (J. Alexander et al., Immunity. 1:751–761 (1994)) emulsified in IFA (Incomplete Freund's Adjuvant). After twelve days, spleens were removed from immunized mice, a splenic suspension was made, and the effector cells were restimulated for one week using p53149-157 or pp65495-503 peptide sensitized syngeneic lipopolysaccharide-treated splenic blast cells (P. A. Wentworth et al., Eur. J. Immunol. 26:97–101 (1996)). Thereafter, for subsequent in vitro stimulations, the stimulator cells were Jurkat A2.1 cells, prepared by mild acid treatment and subsequent loading of peptides (Z. Yu et al., Journal of Surgical Research 69:337–343 (1997)). […]
substance,measurement,setting,value
1 PALMITIC ACID-KSS-NLVPMVATV-OH (Palmitoyl-KSSNLVPMVATV-OH; SMILES CCCCCCCCCCCCCCCC(=O)N[C@@H](CCCCN)C(=O)N[C@@H](CO)C(=O)N[C@@H](CO)C(=O)N[C@@H](CC(N)=O)C(=O)N[C@@H](CC(C)C)C(=O)N[C@H](C(=O)N1CCC[C@H]1C(=O)N[C@@H](CCSC)C(=O)N[C@H](C(=O)N[C@@H](C)C(=O)N[C@H](C(=O)N[C@H](C(=O)O)C(C)C)[C@@H](C)O)C(C)C)C(C)C) [SEQ ID NO:31],immune response induced (CRA of splenic effectors),[1],weaker immune response
KSS-NLVPMVATV-OH (KSSNLVPMVATV-OH) [SEQ ID NO:30],immune response induced (CRA of splenic effectors),[1],no activity unless emulsified in IFA
"p53149-157: peptide p53149-157 from human p53 which binds to HLA A*0201, control peptide (STPPPGTRV; UniProt P04637 149-157, looked up, fragment)",recognition of T2 cells loaded with the immunizing peptide by murine splenic effectors,peptide loaded T2 cells,substantial recognition
same,recognition of T2 cells loaded with the non-immunizing peptide,peptide loaded T2 cells,without recognition of the non-immunizing peptide
